pIC50: −log10 of the molar value.

For this assay, the target named is human recombinant LRRK2 protein (Homo sapiens, UniProt Q5S007). As to the kind of experiment: LRRK2 kinase activity assay (ADP-Glo, LRRKtide peptide). Type of assay: biochemical. To be noted: human recombinant LRRK2 wt, LRRKtide peptide and ATP, 1 h at 37° C. In a few lines: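 ADP-Glo luminescence read-out of a peptide assay: compound, ATP and LRRKtide substrate combined with recombinant human LRRK2 and incubated at 37 °C for 1 h. Ten-point data, N=2, curve-fitted to IC50.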
human recombinant LRRK2 protein, sequence (Q5S007 whole entry): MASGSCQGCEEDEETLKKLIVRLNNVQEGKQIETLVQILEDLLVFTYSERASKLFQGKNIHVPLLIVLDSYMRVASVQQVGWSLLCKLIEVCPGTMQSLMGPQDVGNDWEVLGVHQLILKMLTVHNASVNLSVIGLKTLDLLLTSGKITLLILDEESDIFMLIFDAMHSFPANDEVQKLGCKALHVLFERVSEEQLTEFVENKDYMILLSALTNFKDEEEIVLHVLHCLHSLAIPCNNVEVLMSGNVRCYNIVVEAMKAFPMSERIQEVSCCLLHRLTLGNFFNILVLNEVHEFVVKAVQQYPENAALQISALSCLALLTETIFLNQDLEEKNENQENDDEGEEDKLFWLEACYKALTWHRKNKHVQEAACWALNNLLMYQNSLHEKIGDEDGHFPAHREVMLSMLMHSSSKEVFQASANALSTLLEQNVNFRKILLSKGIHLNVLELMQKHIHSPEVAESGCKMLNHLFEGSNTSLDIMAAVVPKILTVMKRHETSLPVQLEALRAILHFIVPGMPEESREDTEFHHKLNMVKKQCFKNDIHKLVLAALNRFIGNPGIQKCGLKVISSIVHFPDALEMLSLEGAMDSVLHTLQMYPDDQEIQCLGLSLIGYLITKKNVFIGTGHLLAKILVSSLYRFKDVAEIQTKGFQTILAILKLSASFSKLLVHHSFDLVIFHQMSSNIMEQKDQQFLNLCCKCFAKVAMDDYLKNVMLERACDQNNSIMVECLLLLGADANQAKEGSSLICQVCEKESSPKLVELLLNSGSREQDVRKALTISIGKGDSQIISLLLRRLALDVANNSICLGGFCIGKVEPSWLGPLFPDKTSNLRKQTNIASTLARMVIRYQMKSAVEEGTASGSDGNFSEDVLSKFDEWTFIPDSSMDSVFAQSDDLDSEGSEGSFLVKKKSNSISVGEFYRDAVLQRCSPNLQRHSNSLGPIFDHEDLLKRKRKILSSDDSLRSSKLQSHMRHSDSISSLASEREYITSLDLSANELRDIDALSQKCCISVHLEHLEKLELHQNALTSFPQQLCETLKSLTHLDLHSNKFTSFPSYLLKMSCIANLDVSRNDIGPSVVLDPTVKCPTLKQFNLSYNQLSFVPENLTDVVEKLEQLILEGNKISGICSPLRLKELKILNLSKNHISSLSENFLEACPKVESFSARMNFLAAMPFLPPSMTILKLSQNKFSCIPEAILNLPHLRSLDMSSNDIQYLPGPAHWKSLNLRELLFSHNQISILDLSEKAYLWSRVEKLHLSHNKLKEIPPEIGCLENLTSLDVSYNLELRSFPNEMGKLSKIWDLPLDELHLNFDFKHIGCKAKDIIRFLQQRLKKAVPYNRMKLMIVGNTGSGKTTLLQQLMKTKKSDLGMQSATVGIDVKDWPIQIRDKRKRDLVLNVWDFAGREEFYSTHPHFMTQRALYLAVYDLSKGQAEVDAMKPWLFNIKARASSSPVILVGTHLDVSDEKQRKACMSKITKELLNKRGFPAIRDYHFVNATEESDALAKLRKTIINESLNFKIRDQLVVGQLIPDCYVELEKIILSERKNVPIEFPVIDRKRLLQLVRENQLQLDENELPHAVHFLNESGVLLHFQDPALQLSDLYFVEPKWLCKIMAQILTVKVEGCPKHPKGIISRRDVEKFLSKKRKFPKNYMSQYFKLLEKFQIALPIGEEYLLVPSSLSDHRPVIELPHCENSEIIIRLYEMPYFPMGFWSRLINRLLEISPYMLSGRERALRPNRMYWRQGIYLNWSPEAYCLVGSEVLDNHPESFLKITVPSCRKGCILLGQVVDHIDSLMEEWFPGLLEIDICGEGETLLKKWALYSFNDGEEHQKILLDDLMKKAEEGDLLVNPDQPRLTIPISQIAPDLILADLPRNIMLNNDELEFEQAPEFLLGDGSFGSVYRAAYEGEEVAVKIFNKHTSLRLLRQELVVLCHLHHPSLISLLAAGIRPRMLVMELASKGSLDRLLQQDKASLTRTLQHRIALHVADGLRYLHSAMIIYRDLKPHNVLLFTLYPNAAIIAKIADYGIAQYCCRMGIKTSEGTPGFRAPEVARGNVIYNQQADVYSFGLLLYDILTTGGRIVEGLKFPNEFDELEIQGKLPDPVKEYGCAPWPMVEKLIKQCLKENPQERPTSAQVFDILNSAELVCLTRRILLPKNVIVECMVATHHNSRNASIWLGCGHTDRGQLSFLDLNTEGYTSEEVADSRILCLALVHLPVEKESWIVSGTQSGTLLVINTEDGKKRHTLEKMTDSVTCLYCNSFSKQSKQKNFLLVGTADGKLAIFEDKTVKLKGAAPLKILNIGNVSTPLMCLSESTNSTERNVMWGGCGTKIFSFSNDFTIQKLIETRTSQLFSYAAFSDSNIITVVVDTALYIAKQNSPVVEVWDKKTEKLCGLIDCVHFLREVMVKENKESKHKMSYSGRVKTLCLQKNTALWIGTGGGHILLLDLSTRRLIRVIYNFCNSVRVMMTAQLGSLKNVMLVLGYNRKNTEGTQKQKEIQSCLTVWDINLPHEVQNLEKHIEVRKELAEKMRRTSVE
Background: ADP-Glo first removes unused ATP, then detects ADP through luciferase.
As a reminder, the pIC50 is the negative decadic logarithm of the IC50, by convention in mol/L. In the case of `O=C1COc2cc(C3=CCCOC3)cc(c2)-c2n[nH]c3ccc(cc23)OCCCN1` [Example 210, 4-(5,6-dihydro-2H-pyran-3-yl)-7,14-dioxa-10,19,20-triazatetracyclo[13.5.2.1^2,6.0^18,21]tricosa-1(20),2(23),3,5,15,17,21-heptaen-9-one], the pIC50 was above 8.00.
In the case of `O=C1COc2cc(C3=CCOC3)cc(c2)-c2n[nH]c3ccc(cc23)OCCCN1` [Example 211, 4-(2,5-dihydrofuran-3-yl)-7,14-dioxa-10,19,20-triazatetracyclo[13.5.2.1^2,6.0^18,21]tricosa-1(20),2(23),3,5,15,17,21-heptaen-9-one] it was above 8.00; in that of `O=C1COc2cc(cc(N3CCNCC3)c2)-c2n[nH]c3ccc(cc23)OCCCN1` [Example 212, 4-(piperazin-1-yl)-7,14-dioxa-10,19,20-triazatetracyclo [13.5.2.1^2,6.0^18,21]tricosa-1(20),2(23),3,5,15,17,21-heptaen-9-one], above 8.00; in that of `O=C1COc2cc(-c3ccoc3)cc(c2)-c2n[nH]c3ccc(cc23)OCCCN1` [Example 213, 4-(furan-3-yl)-7,14-dioxa-10,19,20-triazatetracyclo[13.5.2.1^2,6.0^18,21]tricosa-1(20),2(23),3,5,15,17,21-heptaen-9-one], above 8.00.
On to `O=C1COc2cc(cc(C3CCOC3)c2)-c2n[nH]c3ccc(cc23)OCCCN1` (centres unmarked) [Example 214, 4-(oxolan-3-yl)-7,14-dioxa-10,19,20-triazatetracyclo[13.5.2.1^2,6.0^18,21]tricosa-1(20),2(23),3,5,15,17,21-heptaen-9-one], for which the pIC50 is above 8.00.
In the case of `C[C@H]1COc2ccc3[nH]nc(c3c2)-c2cccc(c2)OCC(=O)N[C@@H]1C` [Example 215, (11R,12R)-11,12-dimethyl-7,14-dioxa-10,19,20-triazatetracyclo[13.5.2.1^2,6.0^18,21]tricosa-1(20),2,4,6(23),15(22),16,18(21)-heptaen-9-one] it was above 7.00; in that of `O=C1COc2cc(cc(N3C[C@@H](F)[C@H](F)C3)c2)-c2n[nH]c3ccc(cc23)OCCCN1` [Example 216, 4-[(3R,4R)-3,4-difluoropyrrolidin-1-yl]-7,14-dioxa-10,19,20-triazatetracyclo[13.5.2.1^2,6.0^18,21]tricosa-1(20),2(23),3,5,15,17,21-heptaen-9-one], above 8.00.
Take `O=C1COc2cc(cc(N3CCN(C4CC4)CC3)c2)-c2n[nH]c3ccc(cc23)OCCCN1` [Example 217, 4-(4-cyclopropylpiperazin-1-yl)-7,14-dioxa-10,19,20-triazatetracyclo[13.5.2.1^2,6.0^18,21]tricosa-1(20),2(23),3,5,15,17,21-heptaen-9-one]: the pIC50 was above 8.00.
Consider `O=C1COc2cc(cc(C3CCCCO3)c2)-c2n[nH]c3ccc(cc23)OCCCN1` (centres unmarked) [Example 218, 4-(oxan-2-yl)-7,14-dioxa-10,19,20-triazatetracyclo[13.5.2.1^2,6.0^18,21]tricosa-1(20),2(23),3,5,15,17,21-heptaen-9-one], for which the pIC50 was above 8.00.
In the case of `O=C1CCc2cc(F)cc(c2)-c2n[nH]c3ccc(cc23)OCCCN1` [Example 219, 4-fluoro-14-oxa-10,19,20-triazatetracyclo[13.5.2.1^2,6.0^18,21]tricosa-1(20),2(23),3,5,15(22),16,18(21)-heptaen-9-one] it was above 8.00; in that of `O=C1CCc2cncc(c2)-c2n[nH]c3ccc(cc23)OCCCN1` [Example 220, 14-oxa-4,10,19,20-tetraazatetracyclo[13.5.2.1^2,6.0^18,21]tricosa-1(20),2(23),3,5,15(22),16,18(21)-heptaen-9-one], above 8.00.
Under `CN1CCOc2ccc3[nH]nc(c3c2)-c2cccc(c2)OCCC1=O` [Example 221, 11-methyl-7,14-dioxa-11,19,20-triazatetracyclo[13.5.2.1^2,6.0^18,21] tricosa-1(20),2(23),3,5,15,17,21-heptaen-10-one] stands above 7.00; under `O=C1COCCn2ncc(n2)-c2n[nH]c3ccc(cc23)OCCN1` [Example 222, 8,14-dioxa-4,5,11,19,20,23-hexaazatetracyclo[13.5.2.1^2,5.0^18,21]tricosa-1(20),2(23),3,15(22),16,18(21)-hexaen-10-one], above 6.00; under `C[C@@H]1CCNC(=O)CCn2ncc(n2)-c2n[nH]c3ccc(cc23)O1` [Example 223, (12R)-12-methyl-13-oxa-4,5,9,18,19,22-hexaazatetracyclo[12.5.2.1^2,5.0^17,20]docosa-1(19),2(22),3,14(21),15,17(20)-hexaen-8-one], above 8.00.
Consider `O=C1CCn2ncc(n2)-c2n[nH]c3ccc(cc23)OC[C@@H](F)CN1` [Example 225, (11S)-11-fluoro-13-oxa-4,5,9,18,19,22-hexaazatetracyclo [12.5.2.1^2,5.0^17,20]docosa-1(19),2(22),3,14(21),15,17(20)-hexaen-8-one], for which the pIC50 was above 8.00.
As for `C[C@H]1CCNC(=O)CCn2ncc(n2)-c2n[nH]c3ccc(cc23)O1` [Example 226, (12S)-12-methyl-13-oxa-4,5,9,18,19,22-hexaazatetracyclo [12.5.2.1^2,5.0^17,20]docosa-1(19),2(22),3,14(21),15,17(20)-hexaen-8-one], the negative logarithm of the IC50 (pIC50) is above 8.00.
Under `O=C1CCn2ncc(n2)-c2n[nH]c3ccc(cc23)OC[C@H](F)CN1` [Example 227, (11R)-11-fluoro-13-oxa-4,5,9,18,19,22-hexaazatetracyclo [12.5.2.1^2,5.0^17,20]docosa-1(19),2(22),3,14(21),15,17(20)-hexaen-8-one] stands above 8.00; under `C[C@@H]1COc2ccc3[nH]nc(c3c2)-c2cccc(c2)OCCN[C@@H]1C` [Example 228, (11R,12S)-11,12-dimethyl-7,14-dioxa-10,19,20-triazatetracyclo[13.5.2.1^2,6.0^18,21]tricosa-1(20),2,4,6(23),15(22),16,18(21)-heptaene], above 8.00.
In the case of `C[C@H]1NCCOc2cccc(c2)-c2n[nH]c3ccc(cc23)OC[C@@H]1F` [Example 231, (11R,12R)-12-fluoro-11-methyl-7,14-dioxa-10,19,20-triazatetracyclo[13.5.2.1^2,6.0^18,21]tricosa-1(20),2,4,6(23),15(22),16,18(21)-heptaene], the pIC50 was above 7.00.
In the case of `C[C@H]1CCNCCOc2cncc(c2)-c2n[nH]c3ccc(cc23)O1` [Example 232, (13S)-13-methyl-7,14-dioxa-4,10,19,20-tetraazatetracyclo[13.5.2.1^2,6.0^18,21]tricosa-1(20),2,4,6(23),15(22),16,18(21)-heptaene] it was above 8.00.
On to `C[C@H]1CCNCCCn2cc(cn2)-c2n[nH]c3ccc(cc23)O1` [Example 233, (12S)-12-methyl-13-oxa-4,5,9,18,19-pentaazatetracyclo [12.5.2.1^2,5.0^17,20] docosa-1(19),2(22),3,14(21),15,17(20)-hexaene], for which the negative-log IC50 (pIC50) is above 8.00.
In the case of `c1cc2[nH]nc3c2cc1OCCNCCCOc1cc-3cc(N2CCOCC2)c1` [Example 236, 4-(morpholin-4-yl)-7,14-dioxa-11,19,20-triazatetracyclo [13.5.2.1^2,6.0^18,21]tricosa-1(20),2,4,6(23),15,17,21-heptaene], the pIC50 is above 8.00.
Under `c1cc2nc(c1)-c1n[nH]c3ccc(cc13)OCCCNCCO2` [Example 237, 7,14-dioxa-10,19,20,23-tetraazatetracyclo[13.5.2.1^2,6.0^18,21]tricosa-1(20),2,4,6(23),15,17,21-heptaene] stands above 8.00.

These data come from patent US20240246992A1, “MACROCYCLIC LRRK2 KINASE INHIBITORS” (LES LABORATOIRES SERVIER, priority 2021, published 2024).
